Several values for one entry are separate records, joined by “and”; a condition that tells them apart may be missing. Equal entries are not always repeated. Where two headings read alike, the source gives them in different places.
Tests used:
ECHOR = assay: Example II: in-water applied weed control, transplanted paddy rice, greenhouse; type: in vivo, Echinochloa oryzoides (Ard.) Fritsch (early watergrass)
Summary of the method: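 Transplanted rice and weeds at the first to fourth true leaf stage in flooded mud pots (pH ~7.6 soil), greenhouse ~29/26 °C, 14 h photoperiod. Compound A (acid equivalent) and VLCFA/lipid-synthesis herbicides (active ingredient) injected into the paddy water in 1.25% crop oil concentrate. Injury scored visually at ~3 weeks versus untreated, 0–100%.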

DIGSA = assay: Example I: postemergence foliar-applied weed control, greenhouse; type: in vivo, Digitaria sanguinalis (L.) Scop. (large crabgrass); details: 20 DAA
From the text: Seeds or nutlets of the desired test plant species were planted in a soil matrix prepared by mixing a loam or sandy loam soil (e.g., 28.6 percent silt, 18.8 percent clay, and 52.6 percent sand, with a pH of about 5.8 and an organic matter content of about 1.8 percent) and calcareous grit in an 80 to 20 ratio. The soil matrix was contained in plastic pots with a volume of 1 quart and a surface area of 83.6 square centimeters (cm^2). When required to ensure good germination and healthy plants, a fungicide treatment and/or other chemical or physical treatment was applied. The plants were grown for 8-22 days in a greenhouse with an approximate 14 hr photoperiod which was maintained at about 29° C. during the day and 26° C. during the night. Nutrients (Peters Excel® 15-5-15 5-Ca 2-Mg and iron chelate) were applied in the irrigation solution as needed and water was added on a regular basis. Supplemental lighting was provided with overhead metal halide 1000-Watt lamps as necessary. The plants were employed for testing when they reached the first through fourth true leaf stage.
Treatments consisted of the acid or esters of 4-amino-3-chloro-5-fluoro-6-(4-chloro-2-fluoro-3-methoxy-phenyl)pyridine-2-carboxylic acid (Compound A), each formulated as an SC (suspension concentrate), and various herbicidal components alone and in combination. Forms of compound A were applied on an acid equivalent basis.
Other herbicidal components were applied on an active ingredient basis and included very long chain fatty acid (VLCFA) synthesis-inhibiting and fatty acid/lipid synthesis-inhibiting herbicides acetochlor (technical grade material), acetochlor+dichlormid formulated as Topnotch®, pretilachlor (technical grade material), butachlor formulated as Butachlor EC, fentrazamide formulated as Fentrazamide EC, thiobencarb formulated as Bolero® 8EC, cafenstrole formulated as Himeadow® WP or Lapost® Flowable, benfuresate formulated as Full Shot®, dimethenamid-P formulated as Outlook®, indanofan (technical grade material), flufenacet formulated as Define® DF, mefenacet (technical grade material), S-metolachlor formulated as Dual® II Magnum, pethoxamid formulated as Successor® 600, and pyroxasulfone (technical grade material).
Treatment requirements were calculated based upon the rates being tested, the concentration of active ingredient or acid equivalent in the formulation, and a 12 mL application volume at a rate of 187 L/ha.
For treatments comprised of formulated compounds, measured amounts of compounds were placed individually in 25 mL glass vials and diluted in a volume of 1.25% (v/v) Agri-Dex® crop oil concentrated to obtain 12× stock solutions. […] Application solutions were prepared by adding an appropriate amount of each stock solution (e.g., 1 mL) and diluted to the appropriate final concentrations with the addition of 10 mL of an aqueous mixture of 1.25% (v/v) crop oil concentrate so that the final spray solutions contained 1.25+/−0.05% (v/v) crop oil concentrate.
For treatments comprised of technical compounds, weighed amounts can be placed individually in 25 mL glass vials and dissolved in a volume of 97:3 v/v acetone/DMSO to obtain 12× stock solutions. […] Application solutions can be prepared by adding an appropriate amount of each stock solution (e.g., 1 mL) and diluted to the appropriate final concentrations with the addition of 10 mL of an aqueous mixture of 1.5% (v/v) crop oil concentrate so that the final spray solutions contain 1.25% (v/v) crop oil concentrate. When technical materials are used, the concentrated stock solutions can be added to the spray solutions so that the final acetone and DMSO concentrations of the application solutions are […], respectively. […]

CCS(=O)(=O)Oc1ccc2c(c1)C(C)(C)CO2 [Benfuresate, 2,3-dihydro-3,3-dimethyl-5-benzofuranyl ethanesulfonate]
pest or weed control at 150 g/ha (ECHOR; Echinochloa oryzoides, 528 h, 150 gai/ha (Full Slot), 22 DAA, read-out: Visual Weed Control ECHOR Obs): 0%

CCCOCCN(C(=O)CCl)c1c(CC)cccc1CC [Pretilachlor, 2-chloro-N-(2,6-diethylphenyl)-N-(2-propoxyethyl)acetamide]
Visual Weed Control (%) - 20 DAA ECHOR Obs (ECHOR; 75 gai/ha): 0% | Visual Weed Control (%) - 20 DAA ECHOR Obs (ECHOR; 150 gai/ha): 30% | Visual Weed Control Obs (DIGSA; 37.5 gai/ha): 0% | Visual Weed Control Obs (DIGSA; 75 gai/ha): 0% | Visual Weed Control Obs (DIGSA; 150 gai/ha): 0%

COc1c(Cl)ccc(-c2nc(C(=O)O)c(Cl)c(N)c2F)c1F [Compound A Acid, 4-amino-3-chloro-6-(4-chloro-2-fluoro-3-methoxyphenyl)-5-fluoropyridine-2-carboxylic acid]
Visual Weed Control (%) - 20 DAA ECHOR Obs (ECHOR; 8.75 gae/ha): 10% | Visual Weed Control (%) - 20 DAA ECHOR Obs (ECHOR; 17.5 gae/ha): 25% | Visual Weed Control (%) - 21 DAA ECHOR Obs (ECHOR; 17.5 gae/ha): 25% and 20% | Visual Weed Control (%) - 20 DAA ECHOR Obs (ECHOR; 35 gae/ha): 25% | Visual Weed Control (%) - 21 DAA ECHOR Obs (ECHOR; 35 gae/ha): 30% and 35% | pest or weed control at 35 g/ha (ECHOR; Echinochloa oryzoides, 504 h, 35 gae/ha, 21 DAA, read-out: Visual Weed Control ECHOR Obs): 30% | Visual Weed Control Obs (DIGSA; 4.38 gae/ha): 30% | Visual Weed Control Obs (DIGSA; 17.5 gae/ha): 40%

COc1c(Cl)ccc(-c2nc(C(=O)OCc3ccccc3)c(Cl)c(N)c2F)c1F [Compound A Benzyl Ester, benzyl ester of 4-amino-3-chloro-5-fluoro-6-(4-chloro-2-fluoro-3-methoxy-phenyl)pyridine-2-carboxylic acid]
Visual Weed Control (%) - 20 DAA ECHOR Obs (ECHOR; 4.38 gae/ha): 10% | Visual Weed Control (%) - 20 DAA ECHOR Obs (ECHOR; 8.75 gae/ha): 20% | Visual Weed Control (%) - 21 DAA ECHOR Obs (ECHOR; 8.75 gae/ha): 15% and 25% | Visual Weed Control (%) - 20 DAA ECHOR Obs (ECHOR; 17.5 gae/ha): 50% | pest or weed control at 4.38 g/ha (ECHOR; Echinochloa oryzoides, 480 h, 4.38 gae/ha, 20 DAA, read-out: Visual Weed Control ECHOR Obs): 10% | pest or weed control at 8.75 g/ha (ECHOR; Echinochloa oryzoides, 480 h, 8.75 gae/ha, 20 DAA, read-out: Visual Weed Control ECHOR Obs): 20% | pest or weed control at 17.5 g/ha (ECHOR; Echinochloa oryzoides, 480 h, 17.5 gae/ha, 20 DAA, read-out: Visual Weed Control ECHOR Obs): 50% | pest or weed control at 8.75 g/ha (ECHOR; Echinochloa oryzoides, 504 h, 8.75 gae/ha, 21 DAA, read-out: Visual Weed Control ECHOR Obs): 15% | pest or weed control at 8.75 g/ha (ECHOR; Echinochloa oryzoides, 528 h, 8.75 gae/ha, 22 DAA, read-out: Visual Weed Control ECHOR Obs): 35% | pest or weed control at 17.5 g/ha (ECHOR; Echinochloa oryzoides, 528 h, 17.5 gae/ha, 22 DAA, read-out: Visual Weed Control ECHOR Obs): 30% | Visual Weed Control Obs (DIGSA; 4.38 gae/ha): 50% and 40% | Visual Weed Control Obs (DIGSA; 8.75 gae/ha): 60% and 40% and 30% | Visual Weed Control Obs (DIGSA; 17.5 gae/ha): 30%

CCN(CC)C(=O)n1cnc(S(=O)(=O)c2c(C)cc(C)cc2C)n1 [Cafenstrole, N,N-diethyl-3-[(2,4,6-trimethylphenyl)sulfonyl]-1H-1,2,4-triazole-1-carboxamide]
pest or weed control at 52.5 g/ha (ECHOR; Echinochloa oryzoides, 504 h, 52.5 gai/ha (Himeadow WP), 21 DAA, read-out: Visual Weed Control ECHOR Obs): 10% | pest or weed control at 52.5 g/ha (ECHOR; Echinochloa oryzoides, 504 h, 52.5 gai/ha (Lapost Flowable), 21 DAA, read-out: Visual Weed Control ECHOR Obs): 70% | pest or weed control at 105 g/ha (ECHOR; Echinochloa oryzoides, 504 h, 105 gai/ha (Himeadow WP), 21 DAA, read-out: Visual Weed Control ECHOR Obs): 30%

Reference: patent US20130310256A1, “HERBICIDAL COMPOSITIONS COMPRISING 4-AMINO-3-CHLORO-5-FLUORO-6-(4-CHLORO-2-FLUORO-3-METHOXYPHENYL) PYRIDINE-2-CARBOXYLIC ACID OR A DERIVATIVE THEREOF AND VLCFA AND LIPID SYNTHESIS INHIBITING HERBICIDES” (DOW AGROSCIENCES LLC, priority 2008, published 2013)
